Assay results taken from patent publication US9994554B2, “Barbiturate and thiobarbiturate compounds for use in cancer therapy” (NUHOPE, LLC, priority 2011, dated 2018).

How the values were obtained:
SVGp12 = assay: Cytotoxicity, SVGp12; format: cell-based; conditions: SV40 transformed human astrocyte cell line
Description: (§1) Human neuroblastoma cell lines were cultured in Dulbecco's Modified Eagle Medium (DMEM)/F12 media. Human glioma cells were ordered from American Type Culture Collection (ATCC, Manassas, Va.), and maintained in DMEM with 4×10^−3M L-glutamine, 100 U/ml penicillin, 100 μg/ml streptomycin, and 10% fetal bovine serum (FBS). All experiments were performed at 37° C. in 5% CO2 atmosphere under cell culture conditions. Prior to γ-radiation or exposure to chemotherapeutic agents, the glioma cells were plated at a density of 156 to 8,000 cells per well in 96 well plates to account for differences in growth rates, and to obtain similar cell densities for the experimental manipulations, and cultured overnight. […] Cell cytotoxicity assay was determined by MTS [3-(4,5-dimethylthiazol-2-yl)-5-(3-carboxymethoxyphenyl)-2-(4-sulfophenyl)-2H-tetrazolium, inner salt] Cell Proliferation Assay (Promega, Madison, Wis.) or sulforhodamine B (SRB) assay at the end of the exposure period (47, 48).

[1] = tested on: Human Astrocyte (Normal cells); assay: Cytotoxicity, normal human astrocytes; format: cell-based
Description: The human astrocyte cells were cultured from brains of deceased amyotrophic lateral sclerosis (ALS) patients (Uniform Anatomic Gift Act of 1987). The cerebrum was isolated from the other brain regions and meninges and placed in calcium and magnesium-free Hank's buffered salt solution (CMF-HBSS). The cerebrum was diced, incubated with trypsin/EDTA (Gibco BRL, Grand Island, N.Y.) and triturated with DNase. Tissue was passed through a 135 μm Nitex screen (SEFAR America, Depew, N.Y.), washed twice with CMF-HBSS, re-suspended in media (DMEM/10% FBS, 7.5 mM glucose, 4 mM L-glutamine, 1,000 U/mL penicillin, […], 2.5 μg/mL amphotericin B), centrifuged and passed through two sets of 35 μm Nitex screens. Dissociated cells was plated in poly-D-lysine pre-coated 175 cm^2 flasks. The mixed glial cultures were grown for 14 days, and then shaken to dislodge microglia cells and oligodendrocytes that were discarded. The pure astrocytes were attached to the bottom of the flask.

OVCAR-3 = assay: Cytotoxicity, ovarian cancer cells; format: cell-based; conditions: human ovarian carcinoma cell line
Description: To assess the effect of CC-I on the ovarian cancer cells, the cells were cultured overnight at a density of 5,000 to 10,000 cells per well in 96 well plates. Then the cells were treated with different concentrations of CC-I (Formula IV) or Formula V for another 3-6 days before cytotoxicity assay using MTS or SRB assay. The IC50 or LD50, 50% inhibition or lethal dose, of compounds is also determined using statistical software (GraphPad) as a general indicator of toxicity.

MCF10A = assay: Cytotoxicity, MCF10A; format: cell-based, human; conditions: immortalized, non-transformed mammary epithelial cell line
C282Y/SH-SY5Y = assay: cells; format: cell-based; conditions: C282Y HFE transfected human neuroblastoma SH-SY5Y
Description: as §1

CCF-STTG1 cell tumors = assay: Athymic nude mouse subcutaneous glioma tumor model; conditions: 25 mg/kg i.p. once a week for 7 weeks
Description: The efficacy and toxicity of CC-I was tested in vivo using the athymic nude mouse subcutaneous tumor model. Ten million cells of the Temodar®-sensitive (SW1088) or Temodar®-resistant (CCF-STTG1) malignant glioma cell lines were injected into the flank of one-month-old, female athymic nude mice. When the tumor reached 32 mm^3 in size (week I on graph), CC-I (25 mg/kg) was injected intraperitoneally once a week for 7 weeks.

CCF-STTG1 = assay: cells
Description: Human neuroblastoma cell lines were cultured in Dulbecco's Modified Eagle Medium (DMEM)/F12 media. Human glioma cells were ordered from American Type Culture Collection (ATCC, Manassas, Va.), and maintained in DMEM with 4×10^−3M L-glutamine, 100 U/ml penicillin, 100 μg/ml streptomycin, and 10% fetal bovine serum (FBS). All experiments were performed at 37° C. in 5% CO2 atmosphere under cell culture conditions. Prior to γ-radiation or exposure to chemotherapeutic agents, the glioma cells were plated at a density of 156 to 8,000 cells per well in 96 well plates to account for differences in growth rates, and to obtain similar cell densities for the experimental manipulations, and cultured overnight. Then cells received different dosages of γ-radiation from a ^60Co source GammaCell 220 (Nordion International Inc, Ontario, Canada) or chemotherapeutic agents for another 2-6 days. Cell cytotoxicity assay was determined by MTS [3-(4,5-dimethylthiazol-2-yl)-5-(3-carboxymethoxyphenyl)-2-(4-sulfophenyl)-2H-tetrazolium, inner salt] Cell Proliferation Assay (Promega, Madison, Wis.) or sulforhodamine B (SRB) assay at the end of the exposure period (47, 48).
Temodar®-resistant cell lines were used to screen for compounds having the ability to decelerate the growth of, or kill, Temodar®-resistant cells. The efficacy of over 15,000 different compounds in the Drug Discovery Core at Pennsylvania State Hershey Medical Center was tested on Temodar®-resistant human neuroblastoma SH-SY5Y and human glioma CCF-STTG1 cell lines with a colorimetric cytotoxicity assay, the sulforhodamine B (SRB) assay (53).
Chemotype moiety compounds of CC-I were also tested on the Temodar-resistant CCF-STTG1 and Temodar®-sensitive U87-MG cell lines. The glioma cell culture and treatment is as described above.
The human glioma CCF-STTG1 cell lines were plated at a density of 5,000 cells per well in 96 well plates under standard DMEM cell culture conditions and then exposed to different concentrations of CC-I, merbarone, or ICRF-193 for 5 days. Merbarone and ICRF-193 are both topoisomerase II inhibitors (55, 56).

`CCN1C(=O)C(=C/C=C/c2ccco2)C(=O)NC1=S` [CC-I] was tested, and the IC50 (SVGp12) was 4.2 µM, the “toxicity to normal human astrocytes” value ([1]; at concentrations toxic to Temodar-resistant glioma cells) was “not toxic” and the IC50 ([1]; normal cells) was 16.4 µM. It also gave an IC50 (OVCAR-3) of 3.5 µM, an IC50 (MCF10A) of 6.5 µM and an IC50 (C282Y/SH-SY5Y) of 1.8 µM. For the same compound, the “body weight of the mice” value (CCF-STTG1 cell tumors) was “not affected”, the “liver or kidney toxicity” value (CCF-STTG1 cell tumors) was “No liver or kidney toxicity” and the “growth of subcutaneous tumors” value (CCF-STTG1 cell tumors; CCF-STTG1 tumors, nude mice) was “completely inhibited”. For the same compound, the “cytotoxicity compared with merbarone or ICRF-193” value (CCF-STTG1; CCF-STTG1, 5 days) was “more cytotoxic” and the IC50 (CCF-STTG1; read-out: IC50 (μM) CCF-STTG1, human astrocytoma or glioblastoma cell line, Temodar-resistant) was 4.3 µM.
